Tests used:
yeast cells = experiment: Intracellular ATP by luciferase bioluminescence, yeast; format: cell-based, Saccharomyces cerevisiae; conditions: 50-fold the MIC, overnight treatment
Method: The procedure described by Lehtinen et al. was followed, with the modifications indicated herein. In the case of bacteria, 1.5 OD600 units were incubated overnight in 1 mL of final volume with 5-fold MIC concentrations. Then, the cells were collected, washed 3 times in 20 mM phosphate buffer pH 7.4, and lysed in 200 μL of LS1 (50 mM of glucose, 25 mM of Tris-HCl pH 8.0, and 10 mM of EDTA pH 8.0) containing 5 mg/mL of lysozyme and the same volume of glass beads (425–600 μm), by stirring 10 times for 15 s each. Then, the solution was centrifuged at 14,800× g for 15 min, and the supernatant was used for a luciferase assay. For this purpose, in each well of a microtiter plate, 100 μL of luciferase assay buffer (0.015 M of MgSO4, 0.015 M of KH2PO4 pH 8, 0.004 M of EGTA pH 8, and 2 mM of DTT) was added together to a 50 μL of 0.3 mg/mL luciferin solution in 0.01% (w/v) Triton X-100 and 50 μL of the cell extract. Finally, 15 μL of a 67 μg/mL aqueous solution of luciferase was added. Light emission was immediately detected using a Luminoskan Ascent instrument (Thermo Scientific, Waltham, MA, USA) for 1 s per well. Glass beads, lysozyme, luciferin, and luciferase were purchased from Sigma-Aldrich.
[…] Then, cells were collected and washed as above and resuspended in 500 μL of LS2 (140 mM of NaCl, 1.5 mM of MgCl2, 10 mM of Tris-HCl pH 8.0, and 0.5% (v/v) NP40). Cells were lysed in the presence of 1 volume of glass beads as described above. The next steps were carried out as in the case of bacterial samples.
Experiments were carried out at least in triplicate in all cases, and control drugs and SDS (0.1% (w/v) of the final concentration) were also included.

human Jurkat cell line = experiment: Cytotoxicity, flow cytometry viability assay with propidium iodide; format: cell-based; conditions: 24 h treatment, average of three experiments
Outline: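 Jurkat cells in RPMI 1640 with 5% FCS exposed to a concentration range of compound or PBS for 24 h. Dead cells scored as PI-positive events (3.75 μM PI, 5 min, room temperature) by flow cytometry, 10,000 events per sample. IC50 obtained by curve fitting; triplicates.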

[1] = set-up: method as in PMID 37335019; conditions: 298 K, 0.15 mol/dm NaCl; error in last figure in parentheses; cited from earlier work
S. aureus = experiment: Checkerboard titration synergy, S. aureus; format: cell-based, Staphylococcus aureus; conditions: synergistic when FICI ≤0.5
Method: The combined antimicrobial activity of the test compounds with the antibacterial or antifungal control agents was performed under the same conditions used for the MIC determination and following the procedures described by Carton Herrán, Reis de Sá et al. and Zharkova et al.. For each experiment, 16 samples (4 rows × 4 columns) in a total volume of 0.5 mL were prepared in tubes using an array of combinations between the MIC value and 0 μg/mL of the compound to be tested in each row, and between the MIC value and 0 μg/mL of the reference drug in each column. In this way, a variety of mixtures with different concentrations of them alone or in combination was obtained. Briefly, 0.5 mL of a microorganism culture was added to each one of the samples, and after incubation for 24 h with shaking at the appropriate temperature (37 °C or 30 °C), the tubs were visually inspected, and the OD600 was measured. From this information, the fractional inhibitory concentration index (FICI) was calculated according to the formula FIC index = ([A]/[CMI A]) + ([B]/[CMI B]), where [A] and [B] are respective concentrations of tested polyamine and reference drug in their combination effectively inhibiting the growth of bacteria or yeast, and [MIC A] and [MIC B] are the individual MICs of the tested polyamine and reference drug when they are used alone. An interaction is considered synergistic when the FICI value is ≤0.5 [41, 42].
To confirm the data obtained in the checkerboard assay, 30 μL of a ten-fold dilution of the tubes containing concentrations of half of the MIC of each one of the compounds alone (polyamine to be tested and reference drug) and one fourth of the MIC of each one in combination were also spread in LB or SC-ura plates (according to the microorganism considered in each case) and incubated at 37 °C or 30 °C. The visualisation of these plates was performed after 24 or 48 h, respectively. All these experiments were carried out in triplicate.

Row | Compound | Intracellular ATP level relative to untreated cells (yeast cells) | IC50, cytotoxicity on the human Jurkat cell line (human Jurkat cell line) [µg/mL] | Stepwise protonation constant (log K), H2L + H ⇄ H3L [1] | Stepwise protonation constant (log K), H3L + H ⇄ H4L [1] | Stepwise protonation constant (log K), L + H ⇄ HL [1] | Stepwise protonation constant (log K), LH + H ⇄ H2L [1] | Synergy with Ampicillin (S. aureus) | Synergy with Ciprofloxacin (S. aureus) | Synergy with Doxycycline (S. aureus) | Synergy with Gentamicin (S. aureus)
1 | c1cc2nc(c1)CNCCN(CCNCc1ccc3c(c1)OCO3)CCNC2 [Compound 5a, 2-(3,6,9-triaza-1(2,6)-pyridinacyclodecaphane-6-yl)-N-(benzo[d][1,3]dioxol-5-ylmethyl)ethan-1-amine] | 50–70% |  |  |  |  |  |  |  |  | 
2 | N^1-(benzo[d][1,3]dioxol-5-ylmethyl)-N^3-(2-((2-((3-((benzo[d][1,3]dioxol-5-ylmethyl)amino)propyl)amino)ethyl)(2-((3-(((2,3-dihydrobenzofuran-6-yl)methyl)amino)propyl)amino)ethyl)amino)ethyl)propane-1,3-diamine [Compound 4a] |  | 76.86 |  |  |  |  |  |  |  | 
3 | Oc1ccc(CNCCN2CCNCc3cccc(n3)CNCC2)cc1 [Compound 7a] |  |  | 8.516 (8) | 7.341 (9) | 10.153 (9) | 9.473 (9) |  |  |  | 
4 | Oc1ccccc1CNCCN1CCNCc2cccc(n2)CNCC1 [Compound 6a] | 50–70% |  | 7.92 (1) | 6.67 (2) | 9.93 (1) | 9.11 (1) | no synergy and - | no synergy and - | no synergy and - | no synergy and -

— PMC10675077, “Antimicrobial Properties of New Polyamines Conjugated with Oxygen-Containing Aromatic Functional Groups” (Molecules, 2023)
